Assay results: the supplement of paper PMC10733146

Legend:
Assay in all cases: viability relative to DMSO control (fraction); higher = less drug effect (more viable cells)
Details in all cases: 48 h
[1] = tested on: primary T-NHL patient cells (S058)
Method in brief: (§1)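 The cells were primary mononuclear tumour cells, either fresh or cryopreserved, isolated by Ficoll from blood or bone marrow or derived from processed lymph node. Each well of a 384-well plate received 4 × 10^4 cells onto compounds pre-plated at five concentrations, with one well per concentration. The medium was RPMI-1640 with penicillin/streptomycin, L-glutamine and human serum, and plates stood at 37 °C and 5% CO2 for 48 h. Viability is reported as CellTiter-Glo luminescence relative to the median of 16 inner DMSO wells.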

[2] = tested on: primary AML patient cells (S027)
Method in brief: as §1

[3] = tested on: primary AML patient cells (S056)
Method in brief: as §1

[4] = tested on: primary AML patient cells (S085)
Method in brief: as §1

[5] = tested on: primary CLL patient cells (S031)
Method in brief: as §1

[6] = tested on: primary CLL patient cells (S043)
Method in brief: as §1

[7] = tested on: primary MCL patient cells (S041)
Method in brief: as §1

[8] = tested on: primary AML patient cells (S081)
Method in brief: as §1

[9] = tested on: primary AML patient cells (S037)
Method in brief: as §1

[10] = tested on: primary AML patient cells (S012)
Method in brief: as §1

[11] = tested on: primary T-PLL patient cells (S008)
Method in brief: as §1

[12] = tested on: primary DLBCL patient cells (S076)
Method in brief: as §1

[13] = tested on: primary MCL patient cells (S063)
Method in brief: as §1

[14] = tested on: primary AML patient cells (S007)
Method in brief: as §1

[15] = tested on: primary MCL patient cells (S068)
Method in brief: as §1

[16] = tested on: primary AML patient cells (S011)
Method in brief: as §1

[17] = tested on: primary DLBCL patient cells (S049)
Method in brief: as §1

[18] = tested on: primary BL patient cells (S005)
Method in brief: as §1

Cc1sc2c(c1C)C(c1ccc(Cl)cc1)=N[C@@H](CC(=O)Nc1ccc(O)cc1)c1nnc(C)n1-2 [OTX015]
viability ([1]; 0.016 µM): 1.09 | viability ([1]; 0.08 µM): 0.875 | viability ([1]; 0.4 µM): 0.764 | viability ([1]; 2 µM): 0.576 | viability ([1]; 10 µM): 0.591 | viability ([2]; 0.016 µM): 0.93 | viability ([2]; 0.08 µM): 0.894 | viability ([2]; 0.4 µM): 0.73 | viability ([2]; 2 µM): 0.536 | viability ([2]; 10 µM): 0.408 | viability ([3]; 0.016 µM): 0.932 | viability ([3]; 0.08 µM): 0.885 | viability ([3]; 0.4 µM): 0.631 | viability ([3]; 2 µM): 0.255 | viability ([3]; 10 µM): 0.235 | viability ([4]; 0.016 µM): 0.861 | viability ([4]; 0.08 µM): 0.614 | viability ([4]; 0.4 µM): 0.312 | viability ([4]; 2 µM): 0.191 | viability ([4]; 10 µM): 0.178 | viability ([5]; 0.016 µM): 0.983 | viability ([5]; 0.08 µM): 0.927 | viability ([5]; 0.4 µM): 0.77 | viability ([5]; 2 µM): 0.52 | viability ([5]; 10 µM): 0.405 | viability ([6]; 0.016 µM): 0.959 | viability ([6]; 0.08 µM): 0.963 | viability ([6]; 0.4 µM): 0.9 | viability ([6]; 2 µM): 0.76 | viability ([6]; 10 µM): 0.762 | viability ([7]; 0.016 µM): 1.01 | viability ([7]; 0.08 µM): 1.01 | viability ([7]; 0.4 µM): 0.866 | viability ([7]; 2 µM): 0.806 | viability ([7]; 10 µM): 0.708 | viability ([8]; 0.016 µM): 0.847 | viability ([8]; 0.08 µM): 0.793 | viability ([8]; 0.4 µM): 0.475 | viability ([8]; 2 µM): 0.257 | viability ([8]; 10 µM): 0.205 | viability ([9]; 0.016 µM): 1.11 | viability ([9]; 0.08 µM): 0.851 | viability ([9]; 0.4 µM): 1 | viability ([9]; 2 µM): 0.716 | viability ([9]; 10 µM): 0.97 | viability ([10]; 0.016 µM): 0.989 | viability ([10]; 0.08 µM): 0.84 | viability ([10]; 0.4 µM): 0.565 | viability ([10]; 2 µM): 0.379 | viability ([10]; 10 µM): 0.267 | viability ([11]; 0.016 µM): 1.02 | viability ([11]; 0.08 µM): 1.01 | viability ([11]; 0.4 µM): 0.983 | viability ([11]; 2 µM): 0.996 | viability ([11]; 10 µM): 1.02 | viability ([12]; 0.016 µM): 1.05 | viability ([12]; 0.08 µM): 0.942 | viability ([12]; 0.4 µM): 0.802 | viability ([12]; 2 µM): 0.699 | viability ([12]; 10 µM): 0.6 | viability ([13]; 0.016 µM): 1.14 | viability ([13]; 0.08 µM): 1.14 | viability ([13]; 0.4 µM): 0.91 | viability ([13]; 2 µM): 0.654 | viability ([13]; 10 µM): 0.566 | viability ([14]; 0.016 µM): 1.16 | viability ([14]; 0.08 µM): 1.08 | viability ([14]; 0.4 µM): 0.561 | viability ([14]; 2 µM): 0.335 | viability ([14]; 10 µM): 0.24 | viability ([15]; 0.016 µM): 0.856 | viability ([15]; 0.08 µM): 0.616 | viability ([15]; 0.4 µM): 0.266 | viability ([15]; 2 µM): 0.2 | viability ([15]; 10 µM): 0.184 | viability ([16]; 0.016 µM): 1 | viability ([16]; 0.08 µM): 0.899 | viability ([16]; 0.4 µM): 0.766 | viability ([16]; 2 µM): 0.742 | viability ([16]; 10 µM): 0.758 | viability ([17]; 0.016 µM): 1.02 | viability ([17]; 0.08 µM): 0.891 | viability ([17]; 0.4 µM): 0.482 | viability ([17]; 2 µM): 0.2 | viability ([17]; 10 µM): 0.119 | viability ([18]; 0.016 µM): 0.977 | viability ([18]; 0.08 µM): 0.911 | viability ([18]; 0.4 µM): 0.818 | viability ([18]; 2 µM): 0.758 | viability ([18]; 10 µM): 0.802

CCN1CCN(Cc2ccc(Nc3ncc(F)c(-c4cc(F)c5nc(C)n(C(C)C)c5c4)n3)nc2)CC1
viability ([2]; 0.024 µM): 1.05 | viability ([2]; 0.12 µM): 1.05 | viability ([2]; 0.6 µM): 0.953 | viability ([2]; 3 µM): 0.313 | viability ([2]; 15 µM): 0.018 | viability ([3]; 0.024 µM): 0.703 | viability ([3]; 0.12 µM): 0.546 | viability ([3]; 0.6 µM): 0.444 | viability ([3]; 3 µM): 0.136 | viability ([3]; 15 µM): 0.0316 | viability ([4]; 0.024 µM): 0.895 | viability ([4]; 0.12 µM): 1.01 | viability ([4]; 0.6 µM): 1.22 | viability ([4]; 3 µM): 0.265 | viability ([4]; 15 µM): 0.0115 | viability ([5]; 0.024 µM): 0.841 | viability ([5]; 0.12 µM): 0.752 | viability ([5]; 0.6 µM): 0.771 | viability ([5]; 3 µM): 0.238 | viability ([5]; 15 µM): 0.00593 | viability ([6]; 0.024 µM): 0.893 | viability ([6]; 0.12 µM): 1.05 | viability ([6]; 0.6 µM): 0.936 | viability ([6]; 3 µM): 0.58 | viability ([6]; 15 µM): 0.24 | viability ([7]; 0.024 µM): 0.938 | viability ([7]; 0.12 µM): 0.812 | viability ([7]; 0.6 µM): 0.757 | viability ([7]; 3 µM): 0.0785 | viability ([7]; 15 µM): 0.00539 | viability ([8]; 0.024 µM): 0.929 | viability ([8]; 0.12 µM): 0.868 | viability ([8]; 0.6 µM): 0.833 | viability ([8]; 3 µM): 0.537 | viability ([8]; 15 µM): 0.174 | viability ([9]; 0.024 µM): 0.952 | viability ([9]; 0.12 µM): 0.926 | viability ([9]; 0.6 µM): 1.03 | viability ([9]; 3 µM): 0.71 | viability ([9]; 15 µM): 0.255 | viability ([10]; 0.024 µM): 1.11 | viability ([10]; 0.12 µM): 1.04 | viability ([10]; 0.6 µM): 1.07 | viability ([10]; 3 µM): 0.986 | viability ([10]; 15 µM): 0.902 | viability ([11]; 0.024 µM): 1.04 | viability ([11]; 0.12 µM): 0.981 | viability ([11]; 0.6 µM): 1.08 | viability ([11]; 3 µM): 0.415 | viability ([11]; 15 µM): 0.0352 | viability ([13]; 0.024 µM): 1.08 | viability ([13]; 0.12 µM): 0.99 | viability ([13]; 0.6 µM): 0.951 | viability ([13]; 3 µM): 0.605 | viability ([13]; 15 µM): 0.00904 | viability ([14]; 0.024 µM): 0.759 | viability ([14]; 0.12 µM): 0.725 | viability ([14]; 0.6 µM): 0.782 | viability ([14]; 3 µM): 0.668 | viability ([14]; 15 µM): 0.0289 | viability ([15]; 0.024 µM): 0.836 | viability ([15]; 0.12 µM): 0.934 | viability ([15]; 0.6 µM): 1.09 | viability ([15]; 3 µM): 0.0754 | viability ([15]; 15 µM): 0.0119 | viability ([16]; 0.024 µM): 1.74 | viability ([16]; 0.12 µM): 1.08 | viability ([16]; 0.6 µM): 1.09 | viability ([16]; 3 µM): 0.0537 | viability ([16]; 15 µM): 0.01 | viability ([18]; 0.024 µM): 1.01 | viability ([18]; 0.12 µM): 1.61 | viability ([18]; 0.6 µM): 0.924 | viability ([18]; 3 µM): 0.725 | viability ([18]; 15 µM): 0.374
